Measured values from BindingDB's records for doi:10.1016/S0960-894X(96)00248-X (1996).
pIC50: −log10 of the molar value.

Experiment: Inhibitory activity against gastrin receptor

Compound | pIC50
Cc1cccc(NC(=O)NC2N=C(c3ccccc3)c3ccccc3N(CC(=O)NCCCC(=O)NCCSCc3csc(N=C(N)N)n3)C2=O)c1 (configuration not stated) [N-[2-(2-Guanidino-thiazol-4-ylmethylsulfanyl)-ethyl]-4-{2-[2-oxo-5-phenyl-3-(3-m-tolyl-ureido)-2,3-dihydro-benzo[e][1,4]diazepin-1-yl]-acetylamino}-butyramide] | 6.72
Cc1cccc(NC(=O)NC2N=C(c3cccc(OCC(=O)NCCSCc4csc(N=C(N)N)n4)c3)c3ccccc3N(C)C2=O)c1 (configuration not stated) [N-[2-(2-Guanidino-thiazol-4-ylmethylsulfanyl)-ethyl]-2-{3-[1-methyl-2-oxo-3-(3-m-tolyl-ureido)-2,3-dihydro-1H-benzo[e][1,4]diazepin-5-yl]-phenoxy}-acetamide] | 6.87
